Measured values as given in ChEMBL document CHEMBL5346907, “Discovery of a novel oral type Ⅰ CDK8 inhibitor against acute myeloid leukemia” (Eur J Med Chem, 2023).
Calls of active or inactive are those of the source. The rule behind the calls is not given here.

How the values were obtained:
[1] = target: Tyrosine-protein kinase ABL2 (Homo sapiens) (UniProt P42684); experiment: Inhibition of ABL2 (unknown origin) at 1 uM preincubated for 10 mins followed by substrate addition measured for 60 to 120 mins by HTRF assay relative to control; conditions: time 70-130 min
Chain of Tyrosine-protein kinase ABL2 (Homo sapiens) (P42684 whole entry): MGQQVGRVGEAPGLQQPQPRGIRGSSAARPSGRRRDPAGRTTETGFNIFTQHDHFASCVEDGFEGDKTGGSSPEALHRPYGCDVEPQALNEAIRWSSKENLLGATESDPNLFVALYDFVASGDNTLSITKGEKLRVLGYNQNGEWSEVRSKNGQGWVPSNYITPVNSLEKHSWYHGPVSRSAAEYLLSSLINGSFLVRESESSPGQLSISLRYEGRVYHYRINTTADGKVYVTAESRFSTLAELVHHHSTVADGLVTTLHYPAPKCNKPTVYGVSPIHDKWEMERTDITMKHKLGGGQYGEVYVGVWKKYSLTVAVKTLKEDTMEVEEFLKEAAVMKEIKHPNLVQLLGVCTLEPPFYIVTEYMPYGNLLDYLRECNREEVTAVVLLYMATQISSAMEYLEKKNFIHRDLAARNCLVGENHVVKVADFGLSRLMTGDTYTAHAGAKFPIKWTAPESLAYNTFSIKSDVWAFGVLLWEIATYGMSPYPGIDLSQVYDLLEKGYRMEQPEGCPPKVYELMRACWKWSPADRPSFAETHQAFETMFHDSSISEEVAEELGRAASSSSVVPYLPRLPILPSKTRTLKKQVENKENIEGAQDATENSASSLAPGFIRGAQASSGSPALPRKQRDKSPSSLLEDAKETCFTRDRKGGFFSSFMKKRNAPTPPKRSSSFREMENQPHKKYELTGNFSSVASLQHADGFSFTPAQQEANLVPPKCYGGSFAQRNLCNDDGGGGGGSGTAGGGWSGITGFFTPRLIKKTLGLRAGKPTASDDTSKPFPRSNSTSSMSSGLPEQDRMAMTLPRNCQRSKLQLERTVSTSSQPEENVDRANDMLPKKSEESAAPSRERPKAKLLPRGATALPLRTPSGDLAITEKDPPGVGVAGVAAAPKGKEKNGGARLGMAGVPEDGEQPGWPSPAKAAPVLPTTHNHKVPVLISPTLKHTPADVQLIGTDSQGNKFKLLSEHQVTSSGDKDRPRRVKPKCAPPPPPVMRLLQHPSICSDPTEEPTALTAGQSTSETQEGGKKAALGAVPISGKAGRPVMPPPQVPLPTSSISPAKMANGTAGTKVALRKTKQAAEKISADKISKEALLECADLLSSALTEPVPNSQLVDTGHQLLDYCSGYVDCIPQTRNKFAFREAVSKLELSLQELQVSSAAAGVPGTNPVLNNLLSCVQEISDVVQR

[2] = target: Fibroblast growth factor receptor 2 (Homo sapiens) (UniProt P21802); experiment: Inhibition of FGFR2 (unknown origin) at 1 uM preincubated for 10 mins followed by substrate addition measured for 60 to 120 mins by HTRF assay relative to control; conditions: time 70-130 min
[3] = target: Epidermal growth factor receptor (Homo sapiens) (UniProt P00533); experiment: Inhibition of EGFR (unknown origin) at 1 uM preincubated for 10 mins followed by substrate addition measured for 60 to 120 mins by HTRF assay relative to control; conditions: time 70-130 min
[4] = target: Ephrin type-B receptor 1 (Homo sapiens) (UniProt P54762); experiment: Inhibition of EPHB1 (unknown origin) at 1 uM preincubated for 10 mins followed by substrate addition measured for 60 to 120 mins by HTRF assay relative to control; conditions: time 70-130 min
Chain of Ephrin type-B receptor 1 (Homo sapiens) (P54762 whole entry): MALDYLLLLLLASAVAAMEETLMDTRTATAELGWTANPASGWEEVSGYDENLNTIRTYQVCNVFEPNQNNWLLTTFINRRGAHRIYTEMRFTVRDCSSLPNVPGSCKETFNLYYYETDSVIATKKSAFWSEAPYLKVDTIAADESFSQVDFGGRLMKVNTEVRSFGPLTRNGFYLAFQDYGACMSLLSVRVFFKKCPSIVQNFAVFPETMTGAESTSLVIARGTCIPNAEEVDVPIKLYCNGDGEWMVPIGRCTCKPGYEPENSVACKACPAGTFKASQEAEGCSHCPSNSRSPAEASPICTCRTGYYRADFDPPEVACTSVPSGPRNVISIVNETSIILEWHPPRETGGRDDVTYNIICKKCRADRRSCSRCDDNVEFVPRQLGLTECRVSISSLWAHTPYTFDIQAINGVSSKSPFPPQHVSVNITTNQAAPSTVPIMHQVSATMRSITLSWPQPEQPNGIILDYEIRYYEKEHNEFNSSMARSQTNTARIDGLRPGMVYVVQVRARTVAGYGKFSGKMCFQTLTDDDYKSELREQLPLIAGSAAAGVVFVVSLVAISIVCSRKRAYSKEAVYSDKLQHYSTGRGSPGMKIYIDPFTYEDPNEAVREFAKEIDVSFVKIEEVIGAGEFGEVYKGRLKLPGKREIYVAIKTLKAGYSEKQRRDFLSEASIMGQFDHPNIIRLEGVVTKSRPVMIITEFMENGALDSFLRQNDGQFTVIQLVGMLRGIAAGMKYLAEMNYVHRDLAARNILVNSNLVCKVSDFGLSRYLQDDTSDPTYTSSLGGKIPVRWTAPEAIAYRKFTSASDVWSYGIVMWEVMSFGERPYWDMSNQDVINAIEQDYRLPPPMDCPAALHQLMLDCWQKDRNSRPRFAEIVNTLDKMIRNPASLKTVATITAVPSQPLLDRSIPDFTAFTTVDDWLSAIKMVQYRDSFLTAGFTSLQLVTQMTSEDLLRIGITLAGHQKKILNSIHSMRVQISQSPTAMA

[5] = target: Tyrosine-protein kinase Yes (Homo sapiens) (UniProt P07947); experiment: Inhibition of YES (unknown origin) at 1 uM preincubated for 10 mins followed by substrate addition measured for 60 to 120 mins by HTRF assay relative to control; conditions: time 70-130 min
Chain of Tyrosine-protein kinase Yes (Homo sapiens) (P07947 2-543 limits assumed): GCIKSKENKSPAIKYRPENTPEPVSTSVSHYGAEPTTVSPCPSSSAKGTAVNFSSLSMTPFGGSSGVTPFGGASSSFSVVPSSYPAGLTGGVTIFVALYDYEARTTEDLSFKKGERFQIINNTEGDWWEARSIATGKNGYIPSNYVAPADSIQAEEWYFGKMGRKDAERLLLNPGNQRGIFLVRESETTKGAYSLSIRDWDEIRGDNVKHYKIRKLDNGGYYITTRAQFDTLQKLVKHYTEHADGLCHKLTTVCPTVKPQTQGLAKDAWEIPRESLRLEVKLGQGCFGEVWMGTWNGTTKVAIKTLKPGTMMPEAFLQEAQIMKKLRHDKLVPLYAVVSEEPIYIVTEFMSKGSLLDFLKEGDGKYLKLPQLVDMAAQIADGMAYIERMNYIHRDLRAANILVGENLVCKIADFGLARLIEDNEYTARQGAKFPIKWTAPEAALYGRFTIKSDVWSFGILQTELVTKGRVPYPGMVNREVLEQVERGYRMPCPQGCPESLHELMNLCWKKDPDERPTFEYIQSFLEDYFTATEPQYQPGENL

[6] = target: Macrophage colony-stimulating factor 1 receptor (Homo sapiens) (UniProt P07333); experiment: Inhibition of CSF1R (unknown origin) at 1 uM preincubated for 10 mins followed by substrate addition measured for 60 to 120 mins by HTRF assay relative to control; conditions: time 70-130 min
Chain of Macrophage colony-stimulating factor 1 receptor (Homo sapiens) (P07333 whole entry): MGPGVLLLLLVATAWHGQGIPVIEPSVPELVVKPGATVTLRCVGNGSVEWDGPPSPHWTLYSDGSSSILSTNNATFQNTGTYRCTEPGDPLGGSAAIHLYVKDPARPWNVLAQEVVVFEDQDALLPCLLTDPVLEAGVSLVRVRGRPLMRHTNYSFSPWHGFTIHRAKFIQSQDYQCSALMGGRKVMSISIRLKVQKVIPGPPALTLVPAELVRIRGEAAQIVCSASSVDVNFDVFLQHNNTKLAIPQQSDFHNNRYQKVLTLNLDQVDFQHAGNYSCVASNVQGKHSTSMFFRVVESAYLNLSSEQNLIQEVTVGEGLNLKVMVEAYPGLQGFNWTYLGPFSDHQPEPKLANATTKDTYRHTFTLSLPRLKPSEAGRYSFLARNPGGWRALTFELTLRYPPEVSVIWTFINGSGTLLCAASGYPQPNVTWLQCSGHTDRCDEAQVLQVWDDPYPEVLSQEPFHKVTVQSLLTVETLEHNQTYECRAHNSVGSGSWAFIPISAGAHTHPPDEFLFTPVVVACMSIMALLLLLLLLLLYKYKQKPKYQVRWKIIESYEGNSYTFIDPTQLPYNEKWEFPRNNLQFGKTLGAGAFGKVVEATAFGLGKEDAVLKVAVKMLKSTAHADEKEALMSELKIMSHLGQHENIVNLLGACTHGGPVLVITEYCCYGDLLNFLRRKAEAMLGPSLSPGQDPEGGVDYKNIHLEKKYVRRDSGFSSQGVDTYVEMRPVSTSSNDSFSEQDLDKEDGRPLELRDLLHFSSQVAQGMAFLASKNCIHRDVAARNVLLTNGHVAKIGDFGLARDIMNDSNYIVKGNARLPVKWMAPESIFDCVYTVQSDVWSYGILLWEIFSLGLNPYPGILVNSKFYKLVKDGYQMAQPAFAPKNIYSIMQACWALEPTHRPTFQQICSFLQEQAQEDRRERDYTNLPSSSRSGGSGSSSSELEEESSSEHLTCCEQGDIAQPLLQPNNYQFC

[7] = target: Insulin-like growth factor 1 receptor (Homo sapiens) (UniProt P08069); experiment: Inhibition of IGF1R (unknown origin) at 1 uM preincubated for 10 mins followed by substrate addition measured for 60 to 120 mins by HTRF assay relative to control; conditions: time 70-130 min
[8] = target: Cytoplasmic tyrosine-protein kinase BMX (Homo sapiens) (UniProt P51813); experiment: Inhibition of BMX (unknown origin) at 1 uM preincubated for 10 mins followed by substrate addition measured for 60 to 120 mins by HTRF assay relative to control; conditions: time 70-130 min
C1498 = experiment: Antitumor activity against mouse C1498 cells allografted in AML Balb/C mouse model assessed as reduction in tumor growth at 40 to 80 mg/kg, po administered daily for 15 days measured on every 2 days; format: functional, organism-based; conditions: dose 40-80 mg/kg, time 15.0 day
[9] = target: Discoidin domain-containing receptor 2 (Homo sapiens) (UniProt Q16832); experiment: Inhibition of DDR2 (unknown origin) at 1 uM preincubated for 10 mins followed by substrate addition measured for 60 to 120 mins by HTRF assay relative to control; conditions: time 70-130 min
Chain of Discoidin domain-containing receptor 2 (Homo sapiens) (Q16832 whole entry, the tested form may be a part): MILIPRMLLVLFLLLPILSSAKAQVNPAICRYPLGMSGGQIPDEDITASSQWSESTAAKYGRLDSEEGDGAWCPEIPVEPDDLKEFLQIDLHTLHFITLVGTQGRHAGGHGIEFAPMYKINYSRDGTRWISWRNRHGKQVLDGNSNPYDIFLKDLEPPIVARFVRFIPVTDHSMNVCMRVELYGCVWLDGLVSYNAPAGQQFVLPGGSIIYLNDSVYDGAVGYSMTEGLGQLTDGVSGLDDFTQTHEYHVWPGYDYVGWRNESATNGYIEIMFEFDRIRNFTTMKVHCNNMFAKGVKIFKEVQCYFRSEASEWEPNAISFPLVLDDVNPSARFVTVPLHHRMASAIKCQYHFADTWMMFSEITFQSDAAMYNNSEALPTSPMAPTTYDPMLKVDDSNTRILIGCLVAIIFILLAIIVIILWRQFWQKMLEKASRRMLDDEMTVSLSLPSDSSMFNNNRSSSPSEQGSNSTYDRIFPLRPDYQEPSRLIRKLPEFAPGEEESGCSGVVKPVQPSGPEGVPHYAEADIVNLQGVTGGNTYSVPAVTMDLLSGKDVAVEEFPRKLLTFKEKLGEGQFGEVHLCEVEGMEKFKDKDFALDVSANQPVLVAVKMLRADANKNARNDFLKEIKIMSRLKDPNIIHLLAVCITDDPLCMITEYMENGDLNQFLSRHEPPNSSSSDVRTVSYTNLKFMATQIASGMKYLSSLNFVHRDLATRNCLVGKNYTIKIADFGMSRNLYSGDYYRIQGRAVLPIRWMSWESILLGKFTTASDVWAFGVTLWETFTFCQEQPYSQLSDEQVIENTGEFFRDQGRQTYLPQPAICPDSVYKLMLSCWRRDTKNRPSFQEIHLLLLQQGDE

[10] = Acute toxicity in C57BL/6 mouse assessed as histopathological change in lung at 2000 mg/kg, IG measured for 14 days by H&E staining based analysis; format: organism-based; conditions: in vivo, po, 336 h, time 14 day
[11] = target: Protein-tyrosine kinase 2-beta (Homo sapiens) (UniProt Q14289); experiment: Inhibition of PYK2 (unknown origin) at 1 uM preincubated for 10 mins followed by substrate addition measured for 60 to 120 mins by HTRF assay relative to control; conditions: time 70-130 min
[12] = target: Tyrosine-protein kinase Lck (Homo sapiens) (UniProt P06239); experiment: Inhibition of LCK (unknown origin) at 1 uM preincubated for 10 mins followed by substrate addition measured for 60 to 120 mins by HTRF assay relative to control; conditions: time 70-130 min
Chain of Tyrosine-protein kinase Lck (Homo sapiens) (P06239 2-509 limits assumed): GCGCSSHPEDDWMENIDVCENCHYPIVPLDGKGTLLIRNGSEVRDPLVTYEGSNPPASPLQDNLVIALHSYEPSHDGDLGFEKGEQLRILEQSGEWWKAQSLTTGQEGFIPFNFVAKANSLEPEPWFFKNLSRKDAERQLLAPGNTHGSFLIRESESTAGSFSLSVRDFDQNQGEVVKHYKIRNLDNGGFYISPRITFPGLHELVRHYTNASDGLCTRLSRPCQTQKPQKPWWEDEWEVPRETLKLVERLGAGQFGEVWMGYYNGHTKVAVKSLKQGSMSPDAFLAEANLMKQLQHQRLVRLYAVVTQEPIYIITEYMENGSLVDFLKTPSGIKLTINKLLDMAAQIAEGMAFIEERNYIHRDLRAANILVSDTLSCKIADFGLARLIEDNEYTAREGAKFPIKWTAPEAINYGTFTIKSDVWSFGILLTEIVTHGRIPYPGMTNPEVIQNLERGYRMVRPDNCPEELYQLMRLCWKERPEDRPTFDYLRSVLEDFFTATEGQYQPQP

HL-60 = experiment: Induction of apoptosis in human HL-60 cells assessed as viable cells at 1 uM incubated for 48 hrs by annexin V-FITC/PI staining based flow cytometry (reference value: 96.5 %); format: functional; conditions: read-out: Activity
HCT-116 = experiment: Downregulation of STAT1 S727 expression in IFNgamma-stimulated human HCT-116 cells incubated for 12 hrs followed by IFNgamma stimulation for 3 hrs by Western blot analysis; format: functional, cell-based; conditions: dose 1-10 µM
[13] = target: CDK9/cyclin T1 (Homo sapiens) (UniProt O60563+P50750); experiment: Inhibition of CDK9/Cyclin T1 (unknown origin) at 1 uM preincubated for 10 mins followed by substrate addition measured for 60 to 120 mins by HTRF assay relative to control; format: protein-complex assay; conditions: time 70-130 min

Question: Which inhibition [1] does the source give for `NC(=O)c1cccc(-c2cnc3[nH]ccc3c2)c1` here?
Answer: 0%

Question: And the inhibition [2]?
Answer: 4.02%

Question: And the inhibition [3]?
Answer: 8.01%

Question: What about the inhibition [4] of the same compound?
Answer: 0%

Question: What about the inhibition [5] of the same compound?
Answer: 0%

Question: What about the inhibition [6] of the same compound?
Answer: 0%

Question: What about the inhibition [7] of the same compound?
Answer: 7.77%

Question: What about the inhibition [8] of the same compound?
Answer: 5.13%

Question: And the Activity (C1498)?
Answer: Active

Question: What about the inhibition [9] of the same compound?
Answer: 0%

Question: What about the Activity [10] of the same compound?
Answer: Non-Toxic

Question: And the inhibition [11]?
Answer: 3.1%

Question: What about the inhibition [12] of the same compound?
Answer: 1.59%

Question: What about the viability at 1 µM (HL-60) of the same compound?
Answer: 93.3%

Question: What about the Activity (HCT-116) of the same compound?
Answer: Dose-Dependent Effect

Question: And the inhibition [13]?
Answer: 7.41%
